Data set [1] has as its system colon 38 (cancer of the colon of mice). Format: in vivo, mice (BDF1, female). As to conditions: once a day for 8 days, 21 days after transplantation. The method, then:
In vivo antineoplastic test on colon 38 (cancer of the colon of mice):
About 75 mg of colon 38 was subcutaneously transplanted in the side of the body of each of 7-week old female BDF1 mice. A compound of the present invention was suspended in 0.5% methylcellulose and oral administration of a predetermined amount of the suspension once a day was started on the next day and continued for 8 days. 0.5% methylcellulose was orally given to a control group. The control group consisted of 10 mice and the group to which the medicine was given consisted of 6 mice.
21 days after the transplantation, the tumors were taken out and weighed. The tumor growth inhibition ratio of the group to which the medicine was given to the control group was determined according to the following formula:
Growth inhibition ratio (%) (C-T)/C×100
T: average weight of tumor in the group to which the test compound was given
C: average weight of tumor in the control group

Data set [2] relates to KB cells (human nasopharyngeal cells). Put plainly: In vitro antineoplastic test on KB cells (MTT, 3 days). Format: cell-based. The note with it: 72 h, KB cells in vitro, 37° C. for three days, MTT, read-out: IC50.
Method: In vitro antineoplastic test on KB cells (human nasopharyngeal cells):
1.25×10^3 (0.1 ml) of KB cells suspended in a RPMI 1640 medium (a product of Nissui Seiyaku Co., Ltd.) containing 20% of bovine fetus serum, penicillin (100 units/ml), streptomycin (100 μg/ml), mercaptoethanol (5×10^-5 M) and sodium pyruvate (1 mM) were placed in each hole of a 96-hole flat-bottom microplate and cultured in an incubator containing 5% of carbon dioxide at 37° C. for one day.
This concentration was the maximum one, which was subjected to two-fold serial dilution with 0.1% bovine fetus serum RPMI 1640 culture liquid containing 0.5% of dimethyl sulfoxide. It was added to the KB cells in each hole of the above-described culture plate in an amount of 0.1 ml and cultured in an incubator containing 5% of carbon dioxide at 37° C. for three days.
After the completion of the culture, 0.05 ml of MTT [3-(4,5-dimethylthiazol-2-yl)-2,5-diphenyltetrazolium bromide] solution (3.3 mg/ml) was added to each hole and the culture was conducted for an additional 1 h. The supernatant liquid was removed from each hole by suction and a formazan thus formed was dissolved in 0.1 ml of dimethyl sulfoxide. The absorbance at 540 nm was determined with a microplate reader to use as an index of a viable count. A percentage inhibition was calculated according to the following formula and the concentration of the test compound for 50% inhibition (IC50) was determined.
Percentage inhibition (%)=(C-T)/C×100
T: absorbance of the hole containing the test compound
C: absorbance of the hole containing no test compound
The next data set deals with BDF1 mice. Details: species or system female). As to conditions: mouse, in vivo, 1651 mg/kg. The method, then:
EXPERIMENTAL EXAMPLE 3: Toxicity tests
No mouse died, even with 1651 mg/kg of the compound.

These results are taken from patent publication US5610320A, “Sulfonamide phenyl substituted compounds” (Eisai Co., Ltd., priority 1990, dated 1997).

Values after ≈ are worked out from the molar mass of the structure shown. Where two headings read alike, the source gives them in different places.

For `Cc1ccc(S(=O)(=O)Nc2cccnc2Nc2ccccc2)cc1` [Example 1, N-(2-Anilino-3-pyridyl)-p-toluenesulfonamide], the Growth inhibition ratio in data set [1] (100 mg/kg/day oral) is on record as 80%. Besides, in data set [2], the IC50 (as a rule, the concentration needed to halve the response being measured) is 1.5 µg/mL (≈ 4.42 µM).
For `CCc1ccc(S(=O)(=O)Nc2cccnc2Nc2ccccc2)cc1` [Example 2, N-(2-Anilino-3-pyridyl)-4-ethylbenzenesulfonamide] the same measures were 69% and 1.7 µg/mL (≈ 4.81 µM).
Turning to `COc1ccc(S(=O)(=O)Nc2cccnc2Nc2ccccc2)cc1` [Example 3, N-(2-Anilino-3-pyridyl)-4-methoxybenzenesulfonamide], in the data set with BDF1 mice, the “viability observed for 7 days after the administration” value (“viability observed for 7 days” for short) is “No mouse died”. Also, the Growth inhibition ratio in data set [1] (100 mg/kg/day oral) amounted to 98%. The half-maximal inhibitory concentration (IC50) in data set [2] came out at 0.27 µg/mL (≈ 0.76 µM).
As for `COc1ccc(Nc2ncccc2NS(=O)(=O)c2ccc(OC)cc2)cc1` [Example 4, 4-Methoxy-N-[2-[(4-methoxyphenyl)amino]-3-pyridyl]benzenesulfonamide], the “viability observed for 7 days” value with BDF1 mice is “No mouse died”. Also, the Growth inhibition ratio in data set [1] (100 mg/kg/day oral) came out at 99%. For the same compound, the IC50 in data set [2] came to 1.9 µg/mL (≈ 4.93 µM).
Regarding `COc1ccc(S(=O)(=O)Nc2cccnc2Nc2ccc(O)cc2)cc1` [Example 6, N-[2-[(4-Hydroxyphenyl)amino]-3-pyridyl]-4-methoxybenzenesulfonamide], the “viability observed for 7 days” value in the data set with BDF1 mice is reported as “No mouse died”. For the same compound, the Growth inhibition ratio in data set [1] (100 mg/kg/day oral) is on record as 98%. In data set [2], the half-inhibitory concentration (IC50) came out at 0.42 µg/mL (≈ 1.13 µM).
Regarding `COc1ccc(S(=O)(=O)Nc2cccnc2Nc2ccncc2)cc1` [Example 7, 4-Methoxy-N-[2-[(4-pyridyl)amino]-3-pyridyl]benzenesulfonamide], in data set [1] (50 mg/kg/day oral), the Growth inhibition ratio is 61%. For the same compound, the IC50 in data set [2] was 1 µg/mL (≈ 2.81 µM).
For `COc1ccc(S(=O)(=O)Nc2ccccc2NC(=O)c2cccnc2C)cc1` [Example 70, N-[2-(4-Methoxybenzenesulfonamido)phenyl]-2-methylnicotinamide] the same measures were 63% and 0.033 µg/mL (≈ 0.083 µM).
